Laboratory results as given in patent publication US10774083B2, “Heterocyclic amide compound” (TAKEDA PHARMACEUTICAL COMPANY LIMITED, priority 2016, dated 2020).

Tests used:
[1] = system: human malignant melanoma cell line SKMEL-2; assay: antitumor action on mice transplanted with human malignant melanoma cell line SKMEL-2; format: in vivo, mouse; conditions: once per day, 14 days
Experimental: An antitumor action of the compound of the present invention on mice transplanted with human malignant melanoma cell line SKMEL-2 and human fibrosarcoma cell line HT-1080 was evaluated by the following method.
Human malignant melanoma cell line SKMEL-2 was subcutaneously transplanted by injection to 7-week-old BALB/cA Jcl-nu/nu female mice (CLEA Japan, Inc.) at 1.0×10^7 cells (G1). At the time point when the tumor volume reached around 800 mm^3 after transplantation, the cells were subcultured and transplanted into 7-week-old BALB/cA Jcl-nu/nu female mouse (CLEA Japan, Inc.) by using trocar (G2). […] At 13 days from transplantation, the tumor diameter of the engrafted tumor was measured and the tumor volume was calculated by the following formula.
Individuals having a tumor volume of 100 to 300 mm^3 were selected for SKMEL-2, and individuals having a tumor volume of 200 to 400 mm^3 were selected for HT-1080, and 4 or 5 mice per group were used for the experiment. […] The tumor diameter was measured one day before the start of administration and one day after completion of administration and the tumor volume was calculated.
The tumor proliferation rate (T/C (%)) of the test compound administration group in comparison with the control administration group was calculated by the following formula. […]

[2] = system: human ovarian cancer cells A2780; assay: proliferation inhibitory activity against human ovarian cancer cell A2780 (CellTiter-Glo); format: cell-based; conditions: A2780, 72 h, 1 μM test compound, 3 days of culture, read-out: proliferation inhibitory rate (%) of A2780 cells
Outline: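 A2780 cells in RPMI-1640 with 10% FBS, compound added the day after seeding and cultured 3 days. Viability by CellTiter-Glo luminescence. Inhibition (%) calculated with cell-free wells as 100% inhibition.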

## Cc1cc(N2CC[C@@](C#N)(C3CC3)C2=O)cc(C(=O)NCc2cc(F)cc(-c3cnn(C)c3)c2)n1 [Example 159, 4-((3S)-3-cyano-3-cyclopropyl-2-oxopyrrolidin-1-yl)-N-(3-fluoro-5-(1-methyl-1H-pyrazol-4-yl)benzyl)-6-methylpyridine-2-carboxamide]
[1]; SKMEL-2, 5 mg/kg orally
  T/C (%) tumor proliferation rate: 64%
[1]; SKMEL-2, 10 mg/kg orally
  T/C (%) tumor proliferation rate: 7.7%
[2]
  inhibition at 1 µM: 96%
